# Experiments:
# Format in all cases: in vivo, human
# [1] = system: myeloperoxidase (MPO); assay: Myeloperoxidase cytochemical score in blood smear neutrophils, healthy volunteer trial; details: healthy volunteers, azithromycin 3×500 mg, baseline 337 ± 29, score 0-400
# Description: (§1) A trial on healthy volunteers was conducted and the influence of azithromycin given in a dosage of 3×500 mg on selected inflammation-relevant parameters was followed up.
# (§2) Each subject received two standard 250 mg capsules of azithromycin (Sumamed®, PLIVA Zagreb) on three consecutive days. Immediately before the treatment and 2 h and 30 min, 24 h and 28 days after the third and last dose of azithromycin blood was collected from the cubital vein into EDTA-containing tubes. Aliquots were taken for cell counting, smear preparation, polymorphonuclear cell and serum isolation.
# The activity of MPO was assessed from the intensity of staining of neutrophils in blood smears and in cell lysates by ELISA. After fixation in ethanol-formaldehyde, smears were incubated in a substrate solution containing hydrogen peroxide and benzidine (SIGMA). After incubation, smears were counterstained with Giemsa solution. MPO value positivity_of 100 granulocytes was evaluated and scored from 0 to 4+ on the basis of the intensity of the precipitated dye in cytoplasm. Therefore, the value of the score could be from 0 to 400. Normal values of score range (290-390) were taken from this study before azithromycin administration. MPO activity was also evaluated on the digital image of smear taken with a digital camera under the high magnification (×1000) of light microscope. MPO activities in blood smear neutrophils decreased from 2 h and 30 min to 24 h after the last azithromycin dose and returned to baseline after 28 days (Table 1). The change in neutrophil enzyme protein followed the same pattern as that in intracellular enzyme activity, decreasing from 2 h and 30 min to 24 h after the last dose of azithromycin and returning to baseline after 28 days. Both methodological approaches of MPO determination confirmed each other. Degranulation presented with lower MPO neutrophil density determined_with cytochemistry was associated with lower MPO ELISA concentrations in neutrophil lysates.
# [2] = system: β-glucuronidase; assay: β-glucuronidase activity in neutrophil (PMN) lysates, fluorimetric; details: healthy volunteers; for β-glucuronidase (PMN): azithromycin 3×500 mg, baseline 4.12 ± 2.7
# Description: as §1, §2
# (§3) Glycosidases are enzymes that catalyse hydrolysis of glycosidic bonds of oligosacharides and other glycosides. They are specific to the glycosidic part of substrate molecule. N-acetyl-β-D-glucosaminidase (NAGA) and β-glucuronidase are such enzymes. They are lysosomal enzymes, both located in azurophilic (primary; peroxidase-positive) granules of neutrophils. Since degranulation of neutrophils is present during inflammation, many authors choose these enzymes as markers of degranulation and for estimation of neutrophil reactivity. The catalytic concentration of both enzymes in serum and in neutrophil lysates was determined using the fluorimetric method described by O'Brien et al. (New Engl. J. Med. (1970) 283: 15-20) for NAGA and Glaser & Sly (J. Lab. Clin. Med. (1973) 82: 969) for β-glucuronidase.
# [3] = system: β-glucuronidase; assay: β-glucuronidase activity in serum, fluorimetric; details: healthy volunteers; for β-glucuronidase (serum): azithromycin 3×500 mg, baseline 2.88 ± 0.7
# Description: as §1, §2, §3
# [4] = system: IL-6; assay: Serum IL-6 concentration, ELISA; details: healthy volunteers, azithromycin 3×500 mg, baseline 3.4 ± 1.05
# Description: as §1, §2
# (§4) Cytokine and chemokine concentrations were determined using ELISA kits. […] Rapid and pronounced decreases in the plasma concentrations of the neutrophil-stimulating chemokine, IL-8, and GR0-α were observed 2 h and 30 min and 24 h after the last dose of azithromycin (Table 1. The concentration of IL-8 returned essentially to baseline after 28 days, while that of GRO-[…] was decreased at this time.
# [5] = system: GRO-α; assay: Serum GRO-α concentration, ELISA; details: healthy volunteers, azithromycin 3×500 mg, baseline 124.1 ± 33.02
# Description: as §1, §2, §4
# [6] = system: granulocytes; assay: Apoptotic cells by morphology of blood smears; details: healthy volunteers, azithromycin 3×500 mg, baseline 0.333 ± 0.655
# Description: as §1, §2
# Three-day administration of azithromycin exerted a delayed pro-apoptotic effect on granulocytes, as indicated by morphology of blood smears. The number of apoptotic cells counted increased continuously after the three day dosing with azithromycin, achieving statistical significance 28 days after the last dose.
# [7] = system: neutrophils; assay: fMLP-stimulated neutrophil oxidative burst, cytochrome c assay; details: healthy volunteers, azithromycin 3×500 mg, baseline 0.020 ± 0,014, absorbances 550 nm and 540 nm
# Description: as §1, §2
# Neutrophils were incubated with cytochrome c and stimulated with fMLP (Cohen and Chovaniec, 1978, J. Clin. Invest. 61: 1081-1087). Absorbances at 550 nm and 540 nm were recorded and the results were expressed as delta A.
# [8] = system: glutathione peroxidase (GSHPx); assay: Glutathione peroxidase activity in PMN lysates (RANSEL kit); details: healthy volunteers, azithromycin 3×500 mg, baseline 5.3 ± 2.0
# Description: as §1, §2
# Cellular glutathione peroxidase (GSHPx) is a tetrameric protein in which each of the four identical subunits contains one atom of selenium (Se) in the form of selenocysteine at the active site (Misso et al., J. Leukoc. Biol. (1998), 63: 124-130). GSHPx plays a role in H202 detoxification and converts lipid hydroperoxides to nontoxic alcohols (Akkus et al., Clin. Chim. Acta (1996), 244: 221-227); Urban et al., Biomed & Pharmacother. (1997), 51: 388-390). In this study, in healthy volunteers treated with azithromycin alterations in the PMN intracellular GSHPx activity were determined using the commercially available kit RANSEL (Randox Laboratories). GSHPx catalyses the oxidation of glutathione by cumene hydroperoxide. In the presence of glutathione reductase and NADPH the oxidised glutathione is immediately converted to the reduced form with a concomitant oxidation of NADPH to NADP^+. The decrease in absorbance at 340 nm is measured.
smiles,measurement,setting,value
"CC[C@H]1OC(=O)[C@H](C)[C@@H](O[C@H]2C[C@@](C)(OC)[C@@H](O)[C@H](C)O2)[C@H](C)[C@@H](O[C@@H]2O[C@H](C)C[C@H](N(C)C)[C@H]2O)[C@](C)(O)C[C@@H](C)CN(C)[C@H](C)[C@@H](O)[C@]1(C)O [azithromycin, 9-deoxo-9-dihydro-9a-methyl-9a-aza-9a-homoerythromycin A]",myeloperoxidase (score),[1]; 2 h and 30 min after last dose,326 ± 26
same,myeloperoxidase (score),[1]; 24 hours after last dose,315 ± 22
same,myeloperoxidase (score),[1]; 28 days after last dose,347 ± 18
same,decrease of activities of β-glucuronidase in PMN compared to initial values,"[2]; 3×500 mg, 24 hours",about 50%
same,β-glucuronidase activity in PMN higher compared to the initial values,"[2]; 3×500 mg, 28 days later",about 300%
same,decrease of activities of β-glucuronidase in PMN compared to initial values,"[2]; 3×500 mg, after 2 h and 30 min",about 20%
same,β-glucuronidase (PMN),[2]; 2 h and 30 min after last dose,3.21 ± 2.3 nmol × 10^−6 cells × min^−1
same,β-glucuronidase (PMN),[2]; 24 hours after last dose,1.58 ± 0.4 nmol × 10^−6 cells × min^−1
same,β-glucuronidase (PMN),[2]; 28 days after last dose,15.37 ± 11.4 nmol × 10^−6 cells × min^−1
same,change of activity of β-glucuronidase in serum,"[3]; 3×500 mg, during the first 24 hours after the last dose",did not show any changes
same,β-glucuronidase (serum),[3]; 2 h and 30 min after last dose,3.01 ± 0.6 µmol/L/min
same,β-glucuronidase (serum),[3]; 24 hours after last dose,2.95 ± 0.5 µmol/L/min
same,β-glucuronidase (serum),[3]; 28 days after last dose,3.93 ± 1.2 µmol/L/min
same,IL-6 (serum),[4]; 2 h and 30 min after last dose,2.7 ± 1.49 pg/mL
same,IL-6 (serum),[4]; 24 hours after last dose,2.5 ± 1.48 pg/mL
same,IL-6 (serum),[4]; 28 days after last dose,1.15 ± 0.61 pg/mL
same,GRO-α (serum),[5]; 2 h and 30 min after last dose,109.6 ± 30.35 pg/mL
same,GRO-α (serum),[5]; 24 hours after last dose,107.9 ± 27.83 pg/mL
same,GRO-α (serum),[5]; 28 days after last dose,90.4 ± 22.32 pg/mL
same,APOPTOSIS (WBC),[6]; 2 h and 30 min after last dose,0.833 ± 1.029 apoptopic cells/1000 WBC
same,APOPTOSIS (WBC),[6]; 24 hours after last dose,1.417 ± 1.240 apoptopic cells/1000 WBC
same,APOPTOSIS (WBC),[6]; 28 days after last dose,2.583 ± 2.02 apoptopic cells/1000 WBC
same,OXIDATIVE BURST (PMN) fMLP-cytochrom c,[7]; 2 h and 30 min after last dose,"0,007 ± 0.015 ΔA"
same,OXIDATIVE BURST (PMN) fMLP-cytochrom c,[7]; 24 hours after last dose,"−0,018 ± 0.010 ΔA"
same,OXIDATIVE BURST (PMN) fMLP-cytochrom c,[7]; 28 days after last dose,"−0,0011 ± 0,0010 ΔA"
same,GLUTATHION PEROXIDASE (PMN),[8]; 2 h and 30 min after last dose,5.3 ± 2.9 mU/10^6PMN
same,GLUTATHION PEROXIDASE (PMN),[8]; 24 hours after last dose,1.6 ± 1.3 mU/10^6PMN
same,GLUTATHION PEROXIDASE (PMN),[8]; 28 days after last dose,8.0 ± 5.2 mU/10^6PMN
